# Reference: PubChem BioAssay (NCI)
#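 Interpolation was linear, between the two tested concentrations surrounding the appropriate level; five concentrations were tested over 48 hours in 96-well plates. GI50: concentration for 50% inhibition of growth. TGI is the concentration that stops growth completely.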
# Experiments:
# Test in all cases: NCI tumour cell line growth inhibition, 48 h
# 786-0 renal = tested on: 786-0 renal
# A498 renal = tested on: A498 renal
# A549 NSCLC = tested on: A549 NSCLC
# ACHN renal = tested on: ACHN renal
# BT-549 breast = tested on: BT-549 breast
# CAKI-1 renal = tested on: CAKI-1 renal
# CCRF-CEM leukemia = tested on: CCRF-CEM leukemia
# COLO 205 colon = tested on: COLO 205 colon
# DU-145 prostate = tested on: DU-145 prostate
# HCC-2998 colon = tested on: HCC-2998 colon
# HCT-116 colon = tested on: HCT-116 colon
# HCT-15 colon = tested on: HCT-15 colon
# HL-60(TB) leukemia = tested on: HL-60(TB) leukemia
# HOP-62 NSCLC = tested on: HOP-62 NSCLC
# HOP-92 NSCLC = tested on: HOP-92 NSCLC
# HS 578T breast = tested on: HS 578T breast
# HT29 colon = tested on: HT29 colon
# IGROV1 ovarian = tested on: IGROV1 ovarian
# K-562 leukemia = tested on: K-562 leukemia
# KM12 colon = tested on: KM12 colon
# LOX IMVI melanoma = tested on: LOX IMVI melanoma
# M14 melanoma = tested on: M14 melanoma
# MALME-3M melanoma = tested on: MALME-3M melanoma
# MCF7 breast = tested on: MCF7 breast
# MDA-MB-231 breast = tested on: MDA-MB-231 breast
# MDA-MB-435 = tested on: MDA-MB-435
# MOLT-4 leukemia = tested on: MOLT-4 leukemia
# NCI-H226 lung = tested on: NCI-H226 lung
# NCI-H23 lung = tested on: NCI-H23 lung
# NCI-H460 lung = tested on: NCI-H460 lung
# NCI-H522 lung = tested on: NCI-H522 lung
# NCI/ADR-RES ovarian = tested on: NCI/ADR-RES ovarian
# OVCAR-4 ovarian = tested on: OVCAR-4 ovarian
# OVCAR-5 ovarian = tested on: OVCAR-5 ovarian
# OVCAR-8 ovarian = tested on: OVCAR-8 ovarian
# PC-3 prostate = tested on: PC-3 prostate
# RPMI-8226 leukemia = tested on: RPMI-8226 leukemia
# RXF 393 renal = tested on: RXF 393 renal
# SF-268 CNS = tested on: SF-268 CNS
# SF-295 CNS = tested on: SF-295 CNS
# SF-539 CNS = tested on: SF-539 CNS
# SK-MEL-2 melanoma = tested on: SK-MEL-2 melanoma
# SK-MEL-28 melanoma = tested on: SK-MEL-28 melanoma
# SK-MEL-5 melanoma = tested on: SK-MEL-5 melanoma
# SK-OV-3 ovarian = tested on: SK-OV-3 ovarian
# SN12C renal = tested on: SN12C renal
# SNB-19 CNS = tested on: SNB-19 CNS
# SNB-75 CNS = tested on: SNB-75 CNS
# SR leukemia = tested on: SR leukemia
# SW-620 colon = tested on: SW-620 colon
# T-47D breast = tested on: T-47D breast
# TK-10 renal = tested on: TK-10 renal
# U251 CNS = tested on: U251 CNS
# UACC-257 melanoma = tested on: UACC-257 melanoma
# UACC-62 melanoma = tested on: UACC-62 melanoma
# UO-31 renal = tested on: UO-31 renal
structure (smiles),measurement,setting,value
COc1cccc(C(=O)Nc2ccc(CN3CCc4nc5cc(OC)c(OC)cc5cc43)cc2)c1,GI50,786-0 renal,3.02 µM
same,TGI,786-0 renal,9.71 µM
same,GI50,A498 renal,1.67 µM
same,TGI,A498 renal,9.07 µM
same,GI50,A549 NSCLC,3.78 µM
same,TGI,A549 NSCLC,> 100 µM
same,GI50,ACHN renal,3.08 µM
same,TGI,ACHN renal,> 100 µM
same,GI50,BT-549 breast,5.32 µM
same,TGI,BT-549 breast,22.8 µM
same,GI50,CAKI-1 renal,3 µM
same,TGI,CAKI-1 renal,20.9 µM
same,GI50,CCRF-CEM leukemia,3.35 µM
same,TGI,CCRF-CEM leukemia,36.5 µM
same,GI50,COLO 205 colon,2.69 µM
same,TGI,COLO 205 colon,7.03 µM
same,GI50,DU-145 prostate,4.55 µM
same,TGI,DU-145 prostate,67.9 µM
same,GI50,HCC-2998 colon,4.81 µM
same,TGI,HCC-2998 colon,18.5 µM
same,GI50,HCT-116 colon,3.12 µM
same,TGI,HCT-116 colon,12.1 µM
same,GI50,HCT-15 colon,3.32 µM
same,TGI,HCT-15 colon,19.3 µM
same,GI50,HL-60(TB) leukemia,4.92 µM
same,TGI,HL-60(TB) leukemia,27.7 µM
same,GI50,HOP-62 NSCLC,13.5 µM
same,TGI,HOP-62 NSCLC,37.8 µM
same,GI50,HOP-92 NSCLC,1.92 µM
same,TGI,HOP-92 NSCLC,7.45 µM
same,GI50,HS 578T breast,3.87 µM
same,TGI,HS 578T breast,34 µM
same,GI50,HT29 colon,2.59 µM
same,TGI,HT29 colon,7.05 µM
same,GI50,IGROV1 ovarian,5.15 µM
same,TGI,IGROV1 ovarian,> 100 µM
same,GI50,K-562 leukemia,3.72 µM
same,TGI,K-562 leukemia,15.5 µM
same,GI50,KM12 colon,2.09 µM
same,TGI,KM12 colon,5.29 µM
same,GI50,LOX IMVI melanoma,2.37 µM
same,TGI,LOX IMVI melanoma,6.5 µM
same,GI50,M14 melanoma,3.76 µM
same,TGI,M14 melanoma,16.4 µM
same,GI50,MALME-3M melanoma,4.91 µM
same,TGI,MALME-3M melanoma,27.6 µM
same,GI50,MCF7 breast,3.19 µM
same,TGI,MCF7 breast,20.5 µM
same,GI50,MDA-MB-231 breast,2.59 µM
same,TGI,MDA-MB-231 breast,11 µM
same,GI50,MDA-MB-435,3.47 µM
same,TGI,MDA-MB-435,19.3 µM
same,GI50,MOLT-4 leukemia,2.85 µM
same,TGI,MOLT-4 leukemia,10.7 µM
same,GI50,NCI-H226 lung,5.69 µM
same,TGI,NCI-H226 lung,> 100 µM
same,GI50,NCI-H23 lung,4.5 µM
same,TGI,NCI-H23 lung,25.4 µM
same,GI50,NCI-H460 lung,2.84 µM
same,TGI,NCI-H460 lung,8.71 µM
same,GI50,NCI-H522 lung,3.94 µM
same,TGI,NCI-H522 lung,18.3 µM
same,GI50,NCI/ADR-RES ovarian,4.48 µM
same,TGI,NCI/ADR-RES ovarian,> 100 µM
same,GI50,OVCAR-4 ovarian,3.32 µM
same,TGI,OVCAR-4 ovarian,> 100 µM
same,GI50,OVCAR-5 ovarian,12.9 µM
same,TGI,OVCAR-5 ovarian,> 100 µM
same,GI50,OVCAR-8 ovarian,3.88 µM
same,TGI,OVCAR-8 ovarian,> 100 µM
same,GI50,PC-3 prostate,3.14 µM
same,TGI,PC-3 prostate,> 100 µM
same,GI50,RPMI-8226 leukemia,3.89 µM
same,TGI,RPMI-8226 leukemia,24.3 µM
same,GI50,RXF 393 renal,2.74 µM
same,TGI,RXF 393 renal,15.3 µM
same,GI50,SF-268 CNS,6.51 µM
same,TGI,SF-268 CNS,> 100 µM
same,GI50,SF-295 CNS,5.72 µM
same,TGI,SF-295 CNS,28.1 µM
same,GI50,SF-539 CNS,5.51 µM
same,TGI,SF-539 CNS,23.8 µM
same,GI50,SK-MEL-2 melanoma,8.8 µM
same,TGI,SK-MEL-2 melanoma,22.4 µM
same,GI50,SK-MEL-28 melanoma,7.15 µM
same,TGI,SK-MEL-28 melanoma,> 100 µM
same,GI50,SK-MEL-5 melanoma,2.97 µM
same,TGI,SK-MEL-5 melanoma,10.9 µM
same,GI50,SK-OV-3 ovarian,18.5 µM
same,TGI,SK-OV-3 ovarian,> 100 µM
same,GI50,SN12C renal,3.9 µM
same,TGI,SN12C renal,16.4 µM
same,GI50,SNB-19 CNS,8.12 µM
same,TGI,SNB-19 CNS,> 100 µM
same,GI50,SNB-75 CNS,2.66 µM
same,TGI,SNB-75 CNS,> 100 µM
same,GI50,SR leukemia,3.07 µM
same,TGI,SR leukemia,9.64 µM
same,GI50,SW-620 colon,4.16 µM
same,TGI,SW-620 colon,19.4 µM
same,GI50,T-47D breast,4.49 µM
same,TGI,T-47D breast,53.7 µM
same,GI50,TK-10 renal,3.78 µM
same,TGI,TK-10 renal,21.4 µM
same,GI50,U251 CNS,3.17 µM
same,TGI,U251 CNS,12.7 µM
same,GI50,UACC-257 melanoma,5.47 µM
same,TGI,UACC-257 melanoma,92.6 µM
same,GI50,UACC-62 melanoma,7.13 µM
same,TGI,UACC-62 melanoma,21.3 µM
same,GI50,UO-31 renal,3.36 µM
same,TGI,UO-31 renal,60.1 µM
